According to patent publication US12246082B2, “Efficient sunscreen compositions with diethylamino hydroxybenzoyl hexyl benzoate and butyl methoxydibenzoylmethane free of octocrylene” (BASF SE, priority 2019, dated 2025):
Structures can show the parent of a compound that is named as a salt. Blank lines part the entries; values can stand above or below the compound they belong to.

Key:
[1] = stated in the description; cited from earlier work
[2] = Solubility measurements of UV filter in emollients; type: physicochemical; conditions: 25° C., seven days
Description: The vial is placed in a thermostated water bath (25° C.) and the blend is stirred for seven days. If the tested UV-filter is fully soluble, additional filter is added until precipitation is observed. After seven days, the sample is centrifuged for 30 minutes at 13000 rpm. If the supernatant is turbid, it is filtered through a 0.2 μm non steril Membrex 25 PET filter.

[3] = Measurement of interfacial tension (polarity index) of emollients; type: physicochemical; conditions: Tensimat Densimat TD2000
Text: The term “polarity index” refers to non-polar or polar oils. Non-polar oils are mainly based on hydrocarbons and lack an electronegative element, such as oxygen. In contrast, polar oils contain heteroatoms that differ in electronegativity, which results in a dipole moment. However, such oils are still insoluble in water, i.e. hydrophob. The polarity index can be determined by measuring the interfacial tension between the respective oil and water.
Interfacial tension of the respective emollients as listed below was measured using a Tensimat Densimat TD2000.

Compound: COc1ccc(C(=O)CC(=O)c2ccc(C(C)(C)C)cc2)cc1 [BMDBM, 1-(4-(1,1-dimethylethyl)phenyl)-3-(4-methoxyphenyl)propane-1,3-dione]
absorption maximum [1]: 357 nm

Compound: CCCCCCOC(=O)c1ccccc1C(=O)c1ccc(N(CC)CC)cc1O [DHHB, hexyl 2-[4-(diethylamino)-2-hydroxybenzoyl]benzoate]
solubility ([2]; in C12-15 alkyl benzoate): 22%
solubility ([2]; in butylene glycol dicaprylate/dicaprate): 23%
solubility ([2]; in caprylic capric triglyceride): 14%
solubility ([2]; in cyclomethicone): <1%
solubility ([2]; in dibutyl adipate): 31%
solubility ([2]; in diisopropyl adipate): 21%
solubility ([2]; in diisopropyl sebacate): 41%
solubility ([2]; in hydrogenated polyisobutene): <1%
solubility ([2]; in mineral oil): <1%
solubility ([2]; in octyldodecanol): 2.5%
solubility ([2]; in phenethyl benzoate): 57%
solubility ([2]; in propylene glycol dicaprylate/dicaprate): 22%
solubility ([2]; in tributyl citrate): 29.4%
solubility ([2]; in triethyl citrate): 29%
absorption maximum [1]: 354 nm

Compound: C[Si]1(C)O[Si](C)(C)O[Si](C)(C)O[Si](C)(C)O[Si](C)(C)O1 [cyclopentasiloxane]
polarity index [3]: 32 mN/m

Compound: CCCCOC(=O)CCCCC(=O)OCCCC [dibutyl adipate]
polarity index [3]: 14 mN/m

Compound: CCCCC(CC)COC(=O)c1ccc(Nc2nc(Nc3ccc(C(=O)NC(C)(C)C)cc3)nc(Nc3ccc(C(=O)OCC(CC)CCCC)cc3)n2)cc1 (centres unmarked) [diethylhexyl-butamidotriazone, 4,4′-[[6-[[4-[[(1,1-dimethylethyl)amino]carbonyl]phenyl]amino]-1,3,5-triazin-2,4-diyl]diimino]bis-benzoic acid-bis(2-ethylhexyl)ester]
absorption maximum [1]: 310 nm

Compound: CCCCC(CC)COC(=O)/C=C/c1ccc(OC)cc1 (centres unmarked) [ethylhexyl methoxy cinnamate, 2-Ethylhexyl-(2E)-3-(4-methoxyphenyl)acrylate]
absorption maximum [1]: 310 nm

Compound: CCCCCCCCCCC(CO)CCCCCCCC (centres unmarked) [octyldodecanol]
polarity index [3]: 25 mN/m

Next, values leading:

polarity index [3]: 12 mN/m
Compound: CC(C)OC(=O)CCCCC(=O)OC(C)C [diisopropyl adipate]

polarity index [3]: 19 mN/m
Compound: CC(C)OC(=O)CCCCCCCCC(=O)OC(C)C [diisopropyl sebacate]

polarity index [3]: 19 mN/m
Compound: O=C(OCCc1ccccc1)c1ccccc1 [phenethyl benzoate]

polarity index [3]: 10 mN/m
Compound: CCCCOC(=O)CC(O)(CC(=O)OCCCC)C(=O)OCCCC [tributyl citrate]

polarity index [3]: 7 mN/m
Compound: CCOC(=O)CC(O)(CC(=O)OCC)C(=O)OCC [triethyl citrate]
